Eleven compounds from patent US9220795B2, “Indole derivatives” (priority 2011, dated 2015) can be followed below.

By Ki is commonly meant the dissociation constant of the complex between target and ligand, obtained from inhibition or displacement.

In one series the target is T1, Wistar rat heart PBR (Rattus norvegicus, UniProt P16257).
T1 construct: from tissue; host or cells: Wistar rat heart
The series is described as follows: In vitro potency assay: competition for binding to PBR against 0.3 nM [3H]PK-11195. To be noted: non-radioactive analogues; vs 0.3 nM [3H]PK-11195; 15 minutes at 25° C.; 6 concentrations. The protocol: Affinity for PBR was screened using a method adapted from Le Fur et al (Life Sci. 1983; USA 33: 449-57). Non-radioactive analogues of in vivo imaging agents of the invention were tested along with a non-radioactive analogue of a previous tetracyclic indole imaging agent (from co-pending patent application PCT/EP2009/062827; synthesis described in Example 17 below):
Each test compound (dissolved in 50 mM Tris-HCl, pH 7.4, 10 mM MgCl2 containing 1% DMSO) competed for binding to Wistar rat heart PBR against 0.3 nM [^3H] PK-11195. The reaction was carried out in 50 mM Tris-HCl, pH 7.4 10 mM MgCl2 for 15 minutes at 25° C.

Series [1] in a line: In vivo biodistribution method. Set-up: species or system Adult male Wistar rats. To be noted: for Brain 2 min (% ID/g): 2 min after injection via lateral tail vein, 1-3 MBq, n=3; for % Activity in Brain = Parent @ 60 min: 60 min after injection; for OB 30 min (% ID/g): olfactory bulb, 30 min after injection; for OB: Str 30 min: ratio olfactory bulb to striatum at 30 min; for Str 2: 30 min: ratio striatum 2 min to 30 min. The procedure: Imaging agents of the invention were tested in an in vivo biodistribution model along with a previous tetracyclic imaging agent (from co-pending patent application PCT/EP2009/062827; synthesis described in Example 18 below).

Turning to `CCN(CC)C(=O)C1Sc2ccccc2-c2c1c1cc(OC)ccc1n2CCF` (racemic) [tetracyclic indole, (+−)-11-(2-[^18F]fluoroethyl)-8-methoxy-6,11-dihydro-5-thia-11-aza-benzo[a]fluorene-6-carboxylic acid diethyl amide, reference compound], the Ki on Wistar rat heart PBR turned out to be 0.369 nM.

For the compound `CCN(CC)C(=O)C1Sc2ccccc2-c2c1c1cc(OC)ccc1n2CC[18F]` (racemic) [tetracyclic indole, (+−)-11-(2-[^18F]fluoroethyl)-8-methoxy-6,11-dihydro-5-thia-11-aza-benzo[a]fluorene-6-carboxylic acid diethyl amide, reference compound], in series [1], the “Brain 2 min (% ID/g)” value turned out to be 0.32 % ID/g, the “% Activity in Brain = Parent @ 60 min” value was determined as 96.00%, the “OB 30 min (% ID/g)” value is recorded as 0.31 % ID/g and the “OB: Str 30 min” value was determined as 2.07. Moreover, the “Str 2: 30 min” value in series [1] is listed as 1.73.

Turning to `CCN(CC)C(=O)C1CCCc2c1c1c(OC)cccc1n2CCF` (stereo not drawn) [Imaging agent 5, 9-(2-[^18F]-Fluoro-ethyl)-5-methoxy-2,3,4,9-tetrahydro-1H-carbazole-4-carboxylic acid diethylamide], the Ki at Wistar rat heart PBR came out at 2.35 nM.

On to `O=C(C1CCCc2c1c1ccccc1n2CCF)N1CCCCC1` (stereo not drawn) [Imaging agent 6, [9-(2-[^18F]-Fluoro-ethyl)-2,3,4,9-tetrahydro-1H-carbazol-4-yl]-piperidin-1-yl-methanone], for which, on Wistar rat heart PBR, the Ki turned out to be 18.3 nM.

For the compound `CN(Cc1ccccc1)C(=O)C1CCCc2c1c1ccccc1n2CCF` (stereo not drawn) [Imaging agent 7, 9-(2-[^18F]fluoro-ethyl)-2,3,4,9-tetrahydro-1H-carbazole-4-carboxylic acid benzyl-methyl-amide], the Ki on Wistar rat heart PBR worked out at 1.25 nM.

`CN(Cc1ccccc1)C(=O)C1CCCc2c1c1ccccc1n2CC[18F]` (stereo not drawn) [Imaging agent 7, 9-(2-[^18F]fluoro-ethyl)-2,3,4,9-tetrahydro-1H-carbazole-4-carboxylic acid benzyl-methyl-amide]: in series [1], the “Brain 2 min (% ID/g)” value worked out at 0.55 % ID/g, the “% Activity in Brain = Parent @ 60 min” value was 81.28%, the “OB 30 min (% ID/g)” value came out at 0.34 % ID/g and the “OB: Str 30 min” value is reported as 3.40. In addition, in series [1], the “Str 2: 30 min” value is 4.70.

Regarding `CCN(CC)C(=O)C1CCCc2c1c1cc(F)ccc1n2CCF` (stereo not drawn) [Imaging agent 9, 6-Fluoro-9-(2-[^18F]fluoro-ethyl)-2,3,4,9-tetrahydro-1H-carbazole-4-carboxylic acid diethylamide], the Ki at Wistar rat heart PBR was found to be 3.79 nM.

Take `CCN(CC)C(=O)C1CCCc2c1c1cc(F)ccc1n2CC[18F]` (stereo not drawn) [Imaging agent 9, 6-Fluoro-9-(2-[^18F]fluoro-ethyl)-2,3,4,9-tetrahydro-1H-carbazole-4-carboxylic acid diethylamide]: in series [1], the “Brain 2 min (% ID/g)” value was found to be 0.56 % ID/g, the “% Activity in Brain = Parent @ 60 min” value stood at 84.30% and the “OB 30 min (% ID/g)” value came to 0.41 % ID/g.

On to `CCN(CC)C(=O)C1CCCc2c1c1c(F)cccc1n2CC[18F]` (stereo not drawn) [Imaging agent 10, 5-Fluoro-9-(2-[^18F]fluoro-ethyl)-2,3,4,9-tetrahydro-1H-carbazole-4-carboxylic acid diethylamide], for which, in series [1], the “Brain 2 min (% ID/g)” value came out at 0.50 % ID/g, the “% Activity in Brain = Parent @ 60 min” value is given as 92.70% and the “OB 30 min (% ID/g)” value is given as 0.51 % ID/g.

For `CCN(CC)C(=O)C1CC(C)Cc2c1c1ccccc1n2CCF` (stereo not drawn) [Imaging agent 11, 9-(2-[^18F]-Fluoro-ethyl)-2-methyl-2,3,4,9-tetrahydro-1H-carbazole-4-carboxylic acid diethylamide], the Ki at Wistar rat heart PBR was determined as 2.12 nM.

For the compound `CCN(CC)C(=O)C1CC(C)Cc2c1c1ccccc1n2CC[18F]` (stereo not drawn) [Imaging agent 11, 9-(2-[^18F]-Fluoro-ethyl)-2-methyl-2,3,4,9-tetrahydro-1H-carbazole-4-carboxylic acid diethylamide], in series [1], the “Brain 2 min (% ID/g)” value is recorded as 0.51 % ID/g, the “% Activity in Brain = Parent @ 60 min” value is given as 90.37%, the “OB 30 min (% ID/g)” value came to 0.42 % ID/g and the “OB: Str 30 min” value is on record as 3.50. Further, the “Str 2: 30 min” value in series [1] is 3.33.
